Test results as given in ChEMBL document CHEMBL3046429, “Synthesis, molecular modeling study, preliminary antibacterial, and antitumor evaluation of N-substituted naphthalimides and their structural analogues” (2013).
Values after ≈ are worked out from the molar mass of the structure shown.

What was measured:
Assay type in all cases: functional
Staphylococcus aureus = assay: Antibacterial activity against Staphylococcus aureus assessed as growth inhibition after 24 hr by two fold serial dilution method; conditions: for MIC: Staphylococcus aureus, 24 h
SN12C = assay: Growth inhibition of Homo sapiens (human) SN12C cells at 10 uM after 48 hr by coulter counter analysis; conditions: read-out: GI
Pseudomonas aeruginosa = assay: Antibacterial activity against Pseudomonas aeruginosa assessed as growth inhibition after 24 hr by two-fold serial dilution method
SNB-75 = assay: Growth inhibition of Homo sapiens (human) SNB75 cells at 10 uM after 48 hr by coulter counter analysis; conditions: SNB-75, 48 h, read-out: GI
HOP-92 = assay: Growth inhibition of Homo sapiens (human) HOP92 cells at 10 uM after 48 hr by coulter counter analysis; conditions: HOP-92, 48 h, read-out: GI
NCI-H522 = assay: Growth inhibition of Homo sapiens (human) NCI-H522 cells at 10 uM after 48 hr by coulter counter analysis; conditions: NCI-H522, 48 h, read-out: GI
Escherichia coli = assay: Antibacterial activity against Escherichia coli assessed as growth inhibition after 24 hr by two-fold serial dilution method; conditions: for MIC: Escherichia coli, 24 h
UO-31 = assay: Growth inhibition of Homo sapiens (human) UO31 cells at 10 uM after 48 hr by coulter counter analysis; conditions: UO-31, 48 h, read-out: GI
Bacillus subtilis = assay: Antibacterial activity against Bacillus subtilis assessed as growth inhibition after 24 hr by two fold serial dilution method
MCF7 = assay: Growth inhibition of Homo sapiens (human) MCF7 cells at 10 uM after 48 hr by coulter counter analysis; conditions: MCF7, 48 h, read-out: GI

Row | SMILES | -logMIC (Staphylococcus aureus) | MIC (Staphylococcus aureus) | inhibition of growth at 10 µM (SN12C) | MIC (Pseudomonas aeruginosa) | inhibition of growth at 10 µM (SNB-75) | inhibition of growth at 10 µM (HOP-92) | inhibition of growth at 10 µM (NCI-H522) | -logMIC (Escherichia coli) | MIC (Escherichia coli) | inhibition of growth at 10 µM (UO-31) | MIC (Bacillus subtilis) | inhibition of growth at 10 µM (MCF7)
1 | O=C(O)c1ccc(-n2c(=O)c3ccccc3c3ccccc3c2=O)cc1 | 5.19 | 2.2 µg/mL (≈ 6.41 µM) | 6.3% | > 100 µg/mL | 11% | 10.1% | 7.66% | 4.91 | 4.2 µg/mL (≈ 12.2 µM) | 15.4% | 2 µg/mL (≈ 5.83 µM) | 10.1%
2 | O=C(O)c1ccc(N2C(=O)c3cccc4cccc(c34)C2=O)cc1 | 5.3 | 1.6 µg/mL (≈ 5.04 µM) | – | > 100 µg/mL | – | – | – | 4.91 | 3.9 µg/mL (≈ 12.3 µM) | – | 2 µg/mL (≈ 6.3 µM) | –
3 | COc1cc(N2C(=O)c3cccc4cccc(c34)C2=O)cc(OC)c1OC | 5.26 | 2 µg/mL (≈ 5.5 µM) | – | > 100 µg/mL | – | – | – | 5.16 | 2.5 µg/mL (≈ 6.88 µM) | – | 2.2 µg/mL (≈ 6.05 µM) | –
4 | COc1cc(-n2c(=O)c3ccccc3c3ccccc3c2=O)cc(OC)c1OC | 5.19 | 2.5 µg/mL (≈ 6.42 µM) | – | > 100 µg/mL | – | – | – | 5.19 | 2.5 µg/mL (≈ 6.42 µM) | – | 2.5 µg/mL (≈ 6.42 µM) | –
5 | O=c1c2ccccc2c2ccccc2c(=O)n1CCc1ccccn1 | 3.53 | > 100 µg/mL | 8.53% | > 100 µg/mL | 13.1% | 13.5% | 11.4% | 3.53 | > 100 µg/mL | 32.5% | > 100 µg/mL | 28.3%
6 | O=c1c2ccccc2c2ccccc2c(=O)n1CCN1CCOCC1 | 3.52 | > 100 µg/mL | – | > 100 µg/mL | – | – | – | 3.52 | > 100 µg/mL | – | > 100 µg/mL | –
7 | O=c1c2ccccc2c2ccccc2c(=O)n1-c1ccc([N+](=O)[O-])cc1[N+](=O)[O-] | 5.25 | 2.2 µg/mL (≈ 5.65 µM) | 1.4% | > 100 µg/mL | 28.6% | 26.4% | 5.5% | 4.99 | 4 µg/mL (≈ 10.3 µM) | 18.1% | 2.3 µg/mL (≈ 5.91 µM) | -0.39%
8 | COc1cc(OC)c(-n2c(=O)c3ccccc3c3ccccc3c2=O)c(OC)c1 | 5.19 | 2.5 µg/mL (≈ 6.42 µM) | – | > 100 µg/mL | – | – | – | 5.19 | 2.5 µg/mL (≈ 6.42 µM) | – | 2.5 µg/mL (≈ 6.42 µM) | –
9 | Cc1cc(Cl)c(-n2c(=O)c3ccccc3c3ccccc3c2=O)c(Cl)c1 | 4.29 | 19.5 µg/mL (≈ 51 µM) | 14.8% | 10 µg/mL (≈ 26.2 µM) | 10.1% | 1.58% | 1.31% | 5.17 | 2.6 µg/mL (≈ 6.8 µM) | 34.7% | 19.2 µg/mL (≈ 50.2 µM) | 1.96%
10 | O=c1c2ccccc2c2ccccc2c(=O)n1-c1c(Cl)cc(Cl)cc1Cl | 4.33 | 19 µg/mL (≈ 47.2 µM) | -1.37% | 10 µg/mL (≈ 24.8 µM) | 45.6% | 33.6% | 4.08% | 5.22 | 2.4 µg/mL (≈ 5.96 µM) | 10.8% | 18.5 µg/mL (≈ 45.9 µM) | -1.42%
11 | O=C1c2nccnc2C(=O)N1c1ccc([N+](=O)[O-])cc1 | 4.48 | 8.9 µg/mL (≈ 32.9 µM) | – | > 100 µg/mL | – | – | – | 4.41 | 10.5 µg/mL (≈ 38.9 µM) | – | 8.5 µg/mL (≈ 31.5 µM) | –
12 | COc1cc(OC)c(N2C(=O)c3nccnc3C2=O)c(OC)c1 | 4.56 | 8.7 µg/mL (≈ 27.6 µM) | – | > 100 µg/mL | – | – | – | 4.54 | 9 µg/mL (≈ 28.5 µM) | – | 9 µg/mL (≈ 28.5 µM) | –
13 | Cc1cc(Cl)c(N2C(=O)c3nccnc3C2=O)c(Cl)c1 | 4.19 | 20 µg/mL (≈ 64.9 µM) | – | 20 µg/mL (≈ 64.9 µM) | – | – | – | 4.65 | 6.9 µg/mL (≈ 22.4 µM) | – | 20 µg/mL (≈ 64.9 µM) | –
14 | O=C1c2cccc3cccc(c23)C(=O)N1CCN1CCOCC1 | 3.49 | > 100 µg/mL | – | > 100 µg/mL | – | – | – | 3.49 | > 100 µg/mL | – | > 100 µg/mL | –
15 | O=C1c2cccc3cccc(c23)C(=O)N1CCc1ccccn1 | 3.48 | > 100 µg/mL | – | > 100 µg/mL | – | – | – | 3.48 | > 100 µg/mL | – | > 100 µg/mL | –
16 | O=C1c2cccc3cccc(c23)C(=O)N1c1ccc([N+](=O)[O-])cc1 | 5.04 | 2.9 µg/mL (≈ 9.11 µM) | – | > 100 µg/mL | – | – | – | 4.9 | 4 µg/mL (≈ 12.6 µM) | – | 2.9 µg/mL (≈ 9.11 µM) | –
17 | O=C1c2cccc3cccc(c23)C(=O)N1c1ccc([N+](=O)[O-])cc1[N+](=O)[O-] | 5.31 | 1.8 µg/mL (≈ 4.95 µM) | – | > 100 µg/mL | – | – | – | 4.96 | 4 µg/mL (≈ 11 µM) | – | 2.2 µg/mL (≈ 6.06 µM) | –
18 | Cc1cc(Cl)c(N2C(=O)c3cccc4cccc(c34)C2=O)c(Cl)c1 | 4.29 | 18.2 µg/mL (≈ 51.1 µM) | 3.72% | 10 µg/mL (≈ 28.1 µM) | 6.64% | -15.5% | 5.32% | 5.21 | 2.2 µg/mL (≈ 6.18 µM) | 26.8% | 20 µg/mL (≈ 56.1 µM) | -1.03%
19 | O=C1c2cccc3cccc(c23)C(=O)N1c1c(Cl)cc(Cl)cc1Cl | 4.32 | 18 µg/mL (≈ 47.8 µM) | 6.09% | 10 µg/mL (≈ 26.6 µM) | 39.1% | – | 4.37% | 5.27 | 2 µg/mL (≈ 5.31 µM) | 20.9% | 20 µg/mL (≈ 53.1 µM) | 3.55%
20 | O=C1c2nccnc2C(=O)N1CCc1ccccn1 | 3.41 | > 100 µg/mL | – | > 100 µg/mL | 11.8% | -3.5% | 3.84% | 3.41 | > 100 µg/mL | 20.9% | > 100 µg/mL | 2.87%
21 | O=C1c2nccnc2C(=O)N1CCN1CCOCC1 | 3.42 | > 100 µg/mL | – | > 100 µg/mL | – | – | – | 3.42 | > 100 µg/mL | – | > 100 µg/mL | –
22 | O=C(O)c1ccc(N2C(=O)c3nccnc3C2=O)cc1 | 4.5 | 8.5 µg/mL (≈ 31.6 µM) | – | > 100 µg/mL | – | – | – | 4.39 | 10.9 µg/mL (≈ 40.5 µM) | – | 8 µg/mL (≈ 29.7 µM) | –
23 | CC1(C)S[C@@H]2[C@H](NC(=O)[C@H](N)c3ccccc3)C(=O)N2[C@H]1C(=O)O [AMPICILLIN] | – | 2.2 µg/mL (≈ 6.3 µM) | – | 10 µg/mL (≈ 28.6 µM) | – | – | – | – | 2.2 µg/mL (≈ 6.3 µM) | – | 2.2 µg/mL (≈ 6.3 µM) | –
